Measurements from patent US9365590B2, “Selenophene-fused aromatic compound and manufacturing method thereof” (Industry-Academia Cooperation Group of Sejong University, priority 2011, dated 2016).
Where two headings read alike, the source gives them in different places.

Legend:
SK-OV-3 cancer cells = experiment: SK-OV-3 cancer cell proliferation inhibition (WST-1 assay); type: cell-based; details: Homo sapiens, read-out: Proliferation inhibition effect (10 nM; %)
Method: Meanwhile, in the present Example, proliferation inhibition effect of the compound in accordance with Comparative Example 1 and the compounds corresponding to Entry 59 to Entry 72 on SK-OV-3 cancer cells were checked, and a result thereof was as shown in [Table 5].
<Experiment Method of Proliferation Inhibition Effect>
SK-OV-3 cells floated on McCoy's 5A Medium in which 10% FBS and 1% P/S were added were inoculated into a 96-Well plate at a concentration of 3×10^4/100 μl per Well and cultured at 37° C. for 4 hours and then, treated with 100 μl of each compound, so that a final concentration of 10 nM was attained. Then, the cells were cultured at 37° C. for 72 hours. As a control, the cells were treated with DMSO as a solvent of the compounds to attain a final concentration of 0.1%. Each well was treated with 10 μl of a WST-1 assay reagent (iTSBio, Korea), and cultured at 37° C. for 2 hours. Then, absorbance was measured with an automatic Microplate Reader at 450 nm. A cell growth inhibition level was calculated by {(A450control−A450compound)/A450control}*100.

Row | SMILES | inhibition at 0.01 µM (SK-OV-3 cancer cells; SK-OV-3, 72 h) | also measured
1 | CCOC(=O)c1cc2cc(N)ccc2[se]1 |  | melting point: 78 to 80 °C
2 | COc1ccc2c(O)cc3c(c2c1)[C@H](CCl)CN3C(=O)c1cc2cc(OC)c(OC)c(OC)c2[nH]1 [Comparative Example 1, seco-MCBI-TMI, reference compound] | 80% | 
3 | COc1ccc2c(O)cc3c(c2c1)[C@H](CCl)CN3C(=O)c1cc2cc([N+](=O)[O-])ccc2[se]1 [Entry 59, seco-MCBI-Nitro-Selenophene] | 74% | 
4 | COc1ccc2[se]c(C(=O)N3C[C@@H](CCl)c4c3cc(O)c3ccc(OC)cc43)cc2c1 [Entry 60, seco-MCBI-Methoxy-Selenophene] | 78% | 
5 | COc1ccc2c(O)cc3c(c2c1)[C@H](CCl)CN3C(=O)c1cc2cc(NC(C)=O)ccc2[se]1 [Entry 61, seco-MCBI-Acetamino-Selenophene] | 81% | 
6 | COc1ccc2c(c1)C13CC1CN(C(=O)c1cc4cc(NC(C)=O)ccc4[se]1)C3=CC2=O (stereo not drawn) [Entry 62] | 86% | 
7 | COc1ccc2c(O)cc3c(c2c1)[C@H](CCl)CN3C(=O)c1cc2sccc2[se]1 [Entry 63] | 78% | 
8 | COc1ccc2cc(C(=O)N3C[C@@H](CCl)c4c3cc(O)c3ccc(OC)cc43)[se]c2c1 [Entry 64] | 85% | 
9 | CCCCCC(=O)Nc1ccc2[se]c(C(=O)N3C[C@@H](CCl)c4c3cc(O)c3ccc(OC)cc43)cc2c1 [Entry 66] | 87% | 
10 | COc1ccc2c(O)cc3c(c2c1)[C@H](CCl)CN3C(=O)c1cc2cc(OC)c(OC)cc2[se]1 [Entry 67] | 78% | 
11 | COc1ccc2c(O)cc3c(c2c1)[C@H](CCl)CN3C(=O)c1cc2cccnc2[se]1 [Entry 68] | 82% | 
12 | COc1ccc2c(O)cc3c(c2c1)[C@H](CCl)CN3C(=O)c1cc2occc2[se]1 [Entry 69] | 73% | 
13 | COc1cc2cc(C(=O)N3C[C@@H](CCl)c4c3cc(O)c3ccccc43)[nH]c2c(OC)c1OC [Entry 70, CBI-TMI, reference compound] |  | inhibition at 0.01 µM (SK-OV-3 cancer cells; SK-OV-3 cells, final concentration of 10 nM, cultured 72 hours, WST-1, absorbance 450 nm, vs DMSO control): 80%
14 | CCCC(=O)Nc1ccc2[se]c(C(=O)N3C[C@@H](CCl)c4c3cc(O)c3ccccc43)cc2c1 [Entry 71] | 73% | 
15 | CCCC(=O)Nc1ccc2[se]c(C(=O)N3C[C@H]4C[C@@]45C3=CC(=O)c3ccccc35)cc2c1 [Entry 72] | 75% | 
